Source: patent publication US4086361A, “Aminoethyl oximes having anti-depressive activity” (U.S. Philips Corporation, priority 1975, dated 1978)
Structures can show the parent of a compound that is named as a salt.

What was measured:
Assay type in all cases: in vivo, male albino mice
[1] = test system: noradrenaline (tetrabenazine ptosis); experiment: noradrenaline potentiation, tetrabenazine test; conditions: Mus musculus, oral, mice, 45 min before 80 mg/kg s.c. tetrabenazine, read-out: noradrenalin potentiation ED50
Description: The noradrenaline potentiation was determined in the tetrabenazine test. In this test a quantity of the compound to be tested was administered orally to five male albino mice. After 45 minutes the animals were injected subcutaneously with 80 mg/kg of tetrabenazine. After another 45 minutes the degree of ptosis was determined and compared with the ptosis of animals which had received tetrabenazine alone. The ED50 was determined from the results.

[2] = test system: serotonin (5-hydroxytryptophan); experiment: serotonin potentiation, 5-hydroxytryptophan test; conditions: Mus musculus; oral, mice; 1 hour before 150 mg/kg i.p. dl-5-hydroxytryptophan
Description: The serotonin potentiation was determined in the 5-hydroxytryptophan test. For this purpose, the compounds to be tested were administered orally in a series of dosages to isolated male albino mice (5 mice per dosage) 1 hour prior to intraperitoneal administration of 150 mg/kg of dl-5-hydroxytryptophan. Thirty minutes after this threshold dosage the mice were observed individually and the following parameters were scored: stereotypical shaking of the head, spreading of the hindlegs, tremor, tendency to flee, lordosis, clonic stamping with the frontlegs. The ED50 value was calculated from the results.

monoamino oxidase (MAO) = monoamino oxidase (MAO) inhibiting effect, tryptamine hydrochloride mortality test; conditions: oral, mice; 1 hour before 250 mg/kg s.c. tryptamine hydrochloride; mortality after 18 hours
Description: The monoamino oxidase (MAO) inhibiting effect was determined in experiments in which a quantity of the compound to be tested was administered orally to five male albino mice. One hour later the animals were injected subcutaneously with tryptamine hydrochloride in a quantity of 250 mg/kg. […] Eighteen hours after the administration of tryptamine hydrochloride it was determined how many treated animals had died. The ED50 was determined from the results. By means of the method by Metysova, Arzneimittelforschung 13,- 1039 (1963) it was determined whether the oral administration of 200 mg of a compound to be tested to rats causes stomach ulceration.

Structure (SMILES)	ED50 [1] [mg/kg]	ED50 [2] [mg/kg]	MAO inhibition ED50 (monoamino oxidase (MAO)) [mg/kg]
COCCCCC(=NOCCN)c1ccc(Br)cc1 [Br OCH3, 4'-bromo-5-methoxyvalerophenone O-(2-aminoethyl) oxime fumarate (1 : 1)]	6.6	22	> 215
Cl.N#CCCCCC(=NOCCN)c1ccc(Cl)cc1 [Cl CN, 4'-chloro-5-cyanovalerophenone O-(2-aminoethyl) oxime hydrochloride]	6.8	20	> 215
Cl.N#CCCCCCC(=NOCCN)c1ccc(Cl)cc1 [Cl CH2 CN, 4'-chloro-6-cyanocaprophenone O-(2-aminoethyl) oxime hydrochloride]	11	38	> 215
CCCCC(=NOCCN)c1ccc(Cl)cc1 [Cl H, reference compound]	5.6	12	> 215
COCCCCCC(=NOCCN)c1ccc(Cl)cc1.Cl [Cl C2 OCH3, 4'-chloro-6-methoxycaprophenone O-(2-aminoethyl) oxime hydrochloride]	5.3	36	> 215
COCCOCCCCC(=NOCCN)c1ccc(Cl)cc1 [Cl OC2 H4 OCH3, 4'-chloro-5-(2-methoxyethoxy) valerophenone O-(2-aminoethyl) oxime fumarate (1 : 1)]	4	41	> 215
CCOCCCCCC(=NOCCN)c1ccc(Cl)cc1.Cl [Cl CH2 OC2 H5, 4'-chloro-6-ethoxycaprophenone O-(2-aminoethyl) oxime hydrochloride]	7.4	54	> 215
Cl.N#CCCCCC(=NOCCN)c1ccc(Br)cc1 [Br CN, 4'-bromo-5-cyanovalerophenone O-(2-aminoethyl) oxime hydrochloride]	11.2	20	> 215
CCOCCCCC(=NOCCN)c1ccc(Cl)cc1 [Cl OC2 H5, 4'-chloro-5-ethoxyvalerophenone O-(2-aminoethyl) oxime fumarate (1 : 1)]	4.3	36	> 215
CCCCCC(=NOCCN)c1ccc(Cl)cc1 [Cl CH3, reference compound]	1.9	14	> 215
COCCOCCCCC(=NOCCN)c1ccc(Br)cc1 [Br OC2 H4 OCH3, 4'-bromo-5-(2-methoxyethoxy) valerophenone O-(2-aminoethyl) oxime fumarate (1 : 1)]	6.6	35	> 215
CCCCCC(=NOCCN)c1ccc(Br)cc1 [Br CH3, reference compound]	3.1	10	> 215
